Patent US10570179B2, “Substituted urea depsipeptide analogs as activators of the CLPP endopeptidase” (priority 2016, dated 2020)
≈ marks a conversion by molar mass, not a printed value. Read-outs that look alike come from different tables or passages of the source. Numbered stars: 1 amine (or outer) side, 2 acyl side, 3 side chain; on linkers, the order of the positions; unused ones are H or OH. Bridge positions count the residues as written; N and C are the ends. Square brackets hold non-standard residues; d marks the D form. Peptide text beside a SMILES is read from it. * marks the point of attachment. Morpholine(3S-CO) = O=C(O)[C@@H]1COCCN1; Phe(3-Me) = Cc1cccc(C[C@H](N)C(=O)O)c1; X4 = O=C1CN([*:1])[C@H](C(=O)[*:2])CN1; NH(4-Cl-2-F-phenyl) = Fc1cc(Cl)ccc1N*; Pro(4R-Me) = C[C@H]1CN[C@H](C(=O)O)C1; Hyp = O=C(O)[C@@H]1C[C@@H](O)CN1; NH(4-Et-phenyl) = CCc1ccc(N*)cc1; NH(4-Me-phenyl) = Cc1ccc(N*)cc1; aThr = C[C@H](O)[C@H](N)C(=O)O; Pip = O=C(O)[C@@H]1CCCCN1; X3 = c1cc2c(cc1N*)OCCO2; CO = O=C([*:1])[*:2]

Assays:
Solubility determination = assay type: physicochemical; conditions: for solubility kinetic at 10 min: 22 °C, aqueous buffer, kinetic from dmso stock
Procedure: Test compounds were synthesized and supplied by the Department of Chemical Biology and Therapeutics at St. Jude Children's Research Hospital (Memphis, Tenn.). LC-MS chromasolv grade acetonitrile (ACN) was purchased from Fisher Scientific (Loughborough, UK). LC-MS chromasolv grade formic acid was obtained from Sigma-Aldrich (St. Louis, Mo.). Milli-Q water as an ultrapure laboratory grade water was used in aqueous mobile phase.
Chromatographic separation was performed on an Acquity UPLC BEH C18 1.7 μm, 2.1×50 mm column (Waters Corporation, Milford, Mass.) using an Acquity ultra performance liquid chromatography system. The total flow rate was 0.9 mL/min. The sample injection volume was 10 μL. The UPLC column was maintained at 60° C. and the gradient program started at 90% A (0.1% formic acid in MilliQ H2O), changed to 70% A over 0.2 min, to 95% B (0.1% formic acid in ACN) over 1.4 minutes, held for 0.35 minutes, then to 90% A over 0.05 minutes.
Mass data was acquired with an Acquity SQD Mass Spectrometer. The mass spectrometer was operated in positive-ion mode with electrospray ionization. The conditions were as follows: capillary voltage 3.5 kV, cone voltage 30 V, source temperature 150° C., desolvation temperature 350° C., desolvation gas 500 L/hr, cone gas 25 L/hr. Data were acquired using Masslynx v. 4.1 and analyzed using the Quanlynx software suite. A full scan range from m/z=100-1000 in 0.2 s was used to acquire MS data. Both UV and Single ion recording mass spectrometry were used to determine the quantification of the samples.
Stock solutions were prepared by dissolving compounds into DMSO to yield a concentration of 10 mM. Stock solutions were stored at room temperature.
Calibration standards were made by adding stock solutions to DMSO for final concentrations of compounds at concentration of 100, 25, 6.25, 1.563, 0.391 and 0.098 μM.
Solubility test samples were made by adding stock solutions to 200 μL, of DPBS for final concentrations of compounds at 100 μM in a 96-well analytical plate (300 μL, maximum volume in each well). Samples were tested in triplicates. The plate was sealed, shaken at 600 rpm for 10 minutes, and then was centrifuged at 4000 rpm for 20 min at 22° C. 100 μL, of the supernatant was transferred to a new analytical 96-well plate and 10 μL, was injected onto the LCMS system.
Two calibration curves for solubility test samples were analyzed during the quantitation process. The linear regression of test compound peak areas was weighted by 1/x^2. […] Coefficient of determination (R^2) was used to evaluate the linearity of each calibration curve.

S. aureus ClpP (Sa-ClpP) = target: T1, S. aureus ClpP (Sa-ClpP) (Staphylococcus aureus, UniProt Q2G036); experiment: Casein-BODIPY digestion assay (ClpP activation); assay type: biochemical
T1 construct: made in house; host or cells: E. coli BL21 (DE3)

S. aureus ΔClpP = experiment: Minimal inhibitory concentration, microbroth dilution; assay type: cell-based, Staphylococcus aureus; conditions: MIC; ClpP inactivated
Procedure, shortened: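 Growth inhibition was scored visually after overnight aerobic culture at 37 °C in CLSI-style microdilution plates. Inocula contained about 10^5 cfu/mL, and compound concentrations descended in twofold steps from 200 μM.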

[1] = solubility in DPBS, 100 μM test samples, LCMS, read-out: LCMS

T1 sequence (Q2G036 whole entry): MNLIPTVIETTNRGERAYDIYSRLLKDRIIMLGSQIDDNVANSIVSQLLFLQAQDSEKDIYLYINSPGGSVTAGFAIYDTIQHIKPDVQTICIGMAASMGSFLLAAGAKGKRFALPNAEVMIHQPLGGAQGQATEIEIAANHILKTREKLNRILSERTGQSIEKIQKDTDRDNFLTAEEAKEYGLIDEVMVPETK

| Structure (SMILES) | μsol (μM) (Solubility determination) [µM] | solubility kinetic at 10 min (Solubility determination) [µM] | EC50 (S. aureus ClpP (Sa-ClpP)) [nM] | Minimal Inhibitory Concentrations (μM) S. aureus ΔClpP (S. aureus ΔClpP) [µM] | solubility kinetic at 10 min (Solubility determination; [1]) [µM] | μsol (μM) (Solubility determination; solubility) |
| --- | --- | --- | --- | --- | --- | --- |
| Cc1cccc(C[C@H](NC(=O)Nc2ccc(Cl)cc2F)C(=O)N[C@@H]2C(=O)N3CCC[C@H]3C(=O)N3CC(=O)NC[C@H]3C(=O)N[C@@H](C)C(=O)N3C[C@H](C)C[C@H]3C(=O)O[C@H]2C)c1 [Compound 20, (S)-2-(3-(4-CHLORO-2-FLUOROPHENYL)UREIDO)-3-(M-TOLYL)-N-((6AS,12S,13S,15AS,17R,21S,23AS)-13,17,21-TRIMETHYL-3,6,11,15,20,23-HEXAOXOOCTADECAHYDRO-2H,6H,11H,15H-PYRAZINO[2,1-I]DIPYRROLO[2,1-C:2′,1′-L][1]OXA[4,7,10,13]TETRAAZACYCLOHEXADECIN-12-YL)PROPANAMIDE] ({NH(4-Cl-2-F-phenyl)-CO}-[Phe(3-Me)][aThr]P[X4]A[Pro(4R-Me)]; ester 2-C) | 29.9 ± 1.5 | 34.4 ± 1.1 (≈ 28.9 µg/mL) | 710 ± 80 | >20 |  |  |
| Cc1cccc(C[C@H](NC(=O)Nc2ccc3c(c2)OCCO3)C(=O)N[C@@H]2C(=O)N3CCC[C@H]3C(=O)N3CCCC[C@H]3C(=O)N[C@@H](C)C(=O)N3C[C@H](C)C[C@H]3C(=O)O[C@H]2C)c1 [Compound 21, (S)-2-(3-(2,3-DIHYDROBENZO[B][1,4]DIOXIN-6-YL)UREIDO)-3-(M-TOLYL)-N-((2R,6S,8AS,14AS,20S,21S,23AS)-2,6,21-TRIMETHYL-5,8,14,19,23-PENTAOXOOCTADECAHYDRO-1H,5H,14H,19H-PYRIDO[2,1-I]DIPYRROLO[2,1-C:2′,1′-L][1]OXA[4,7,10,13]TETRAAZACYCLOHEXADECIN-20-YL)PROPANAMIDE] ({X3-CO}-[Phe(3-Me)][aThr]P[Pip]A[Pro(4R-Me)]; ester 2-C) | 36.8 ± 1.6 | 30.6 ± 0.7 (≈ 25.4 µg/mL) | 370 ± 40 | >20 |  |  |
| Cc1cccc(C[C@H](NC(=O)Nc2ccc3c(c2)OCCO3)C(=O)N[C@H]2COC(=O)[C@@H]3C[C@@H](C)CN3C(=O)[C@H](C)NC(=O)[C@@H]3CCCCN3C(=O)[C@@H]3CCCN3C2=O)c1 [Compound 22, (S)-2-(3-(2,3-DIHYDROBENZO[B][1,4]DIOXIN-6-YL)UREIDO)-N-((2R,6S,8AS,14AS,20S,23AS)-2,6-DIMETHYL-5,8,14,19,23-PENTAOXOOCTADECAHYDRO-1H,5H,14H,19H-PYRIDO[2,1-I]DIPYRROLO[2,1-C:2′,1′-L][1]OXA[4,7,10,13]TETRAAZACYCLOHEXADECIN-20-YL)-3-(M-TOLYL)PROPANAMIDE] | 7.6 ± 0.3 | 3.3 ± 0.2 (≈ 2.69 µg/mL) | 650 ± 60 | >20 |  |  |
| Cc1cccc(C[C@H](NC(=O)Nc2ccc3c(c2)OCO3)C(=O)N[C@H]2COC(=O)[C@@H]3C[C@@H](C)CN3C(=O)[C@H](C)NC(=O)[C@@H]3CCCCN3C(=O)[C@@H]3CCCN3C2=O)c1 [Compound 23, (S)-2-(3-(BENZO[D][1,3]DIOXOL-5-YL)UREIDO)-N-((2R,6S,8AS,14AS,20S,23AS)-2,6-DIMETHYL-5,8,14,19,23-PENTAOXOOCTADECAHYDRO-1H,5H,14H,19H-PYRIDO[2,1-I]DIPYRROLO[2,1-C:2′,1′-L][1]OXA[4,7,10,13]TETRAAZACYCLOHEXADECIN-20-YL)-3-(M-TOLYL)PROPANAMIDE] | 3.0 ± 0.0 | 1.7 ± 0.1 (≈ 1.36 µg/mL) | 350 ± 90 | >20 |  |  |
| CCc1ccc(NC(=O)N[C@@H](Cc2cccc(C)c2)C(=O)N[C@@H]2C(=O)N3C[C@H](O)C[C@H]3C(=O)N3CCOC[C@H]3C(=O)N[C@@H](C)C(=O)N3C[C@H](C)C[C@H]3C(=O)O[C@H]2C)cc1 [Compound 24, (S)-2-(3-(4-ETHYLPHENYL)UREIDO)-N-((6AS,8R,12S,13S,15AS,17R,21S,23AS)-8-HYDROXY-13,17,21-TRIMETHYL-6,11,15,20,23-PENTAOXOOCTADECAHYDRO-6H,11H,15H-[1,4]OXAZINO[3,4-I]DIPYRROLO[2,1-C:2′,1′-L][1]OXA[4,7,10,13]TETRAAZACYCLOHEXADECIN-12-YL)-3-(M-TOLYL)PROPANAMIDE] ({NH(4-Et-phenyl)-CO}-[Phe(3-Me)][aThr][Hyp][Morpholine(3S-CO)]A[Pro(4R-Me)]; ester 2-C) | 48.4 ± 0.7 | 43.7 ± 0.9 (≈ 35.7 µg/mL) | 130 ± 40 | >20 |  |  |
| CCc1ccc(NC(=O)N[C@@H](Cc2cccc(C)c2)C(=O)N[C@@H]2C(=O)N3C[C@H](O)C[C@H]3C(=O)N3CCCC[C@H]3C(=O)N[C@@H](C)C(=O)N3C[C@H](C)C[C@H]3C(=O)O[C@H]2C)cc1 [Compound 25, (S)-2-(3-(4-ETHYLPHENYL)UREIDO)-N-((2R,6S,8AS,14AS,16R,20S,21S,23AS)-16-HYDROXY-2,6,21-TRIMETHYL-5,8,14,19,23-PENTAOXOOCTADECAHYDRO-1H,5H,14H,19H-PYRIDO[2,1-I]DIPYRROLO[2,1-C:2′,1′-L][1]OXA[4,7,10,13]TETRAAZACYCLOHEXADECIN-20-YL)-3-(M-TOLYL)PROPANAMIDE] ({NH(4-Et-phenyl)-CO}-[Phe(3-Me)][aThr][Hyp][Pip]A[Pro(4R-Me)]; ester 2-C) | 9.0 ± 0.3 | 18.6 ± 1.17 (≈ 15.2 µg/mL) | 410 ± 20 | >20 |  |  |
| Cc1ccc(NC(=O)N[C@@H](Cc2cccc(C)c2)C(=O)N[C@@H]2C(=O)N3C[C@H](O)C[C@H]3C(=O)N3CCCC[C@H]3C(=O)N[C@@H](C)C(=O)N3C[C@H](C)C[C@H]3C(=O)O[C@H]2C)cc1 [Compound 26, (S)—N-((2R,6S,8AS,14AS,16R,20S,21S,23AS)-16-HYDROXY-2,6,21-TRIMETHYL-5,8,14,19,23-PENTAOXOOCTADECAHYDRO-1H,5H,14H,19H-PYRIDO[2,1-I]DIPYRROLO[2,1-C:2′,1′-L][1]OXA[4,7,10,13]TETRAAZACYCLOHEXADECIN-20-YL)-3-(M-TOLYL)-2-(3-(P-TOLYL)UREIDO)PROPANAMIDE] ({NH(4-Me-phenyl)-CO}-[Phe(3-Me)][aThr][Hyp][Pip]A[Pro(4R-Me)]; ester 2-C) |  |  | 650 ± 90 | >20 | 45.3 ± 1.89 (≈ 36.3 µg/mL) | 47.7 ± 0.4 µM |
| Cc1cccc(C[C@H](NC(=O)Nc2ccc3c(c2)OCCO3)C(=O)N[C@@H]2C(=O)N3C[C@H](O)C[C@H]3C(=O)N3CCOC[C@H]3C(=O)N[C@@H](C)C(=O)N3C[C@H](C)C[C@H]3C(=O)O[C@H]2C)c1 [Compound 27, (S)-2-(3-(2,3-DIHYDROBENZO[B][1,4]DIOXIN-6-YL)UREIDO)-N-((6AS,8R,12S,13S,15AS,17R,21S,23AS)-8-HYDROXY-13,17,21-TRIMETHYL-6,11,15,20,23-PENTAOXOOCTADECAHYDRO-6H,11H,15H-[1,4]OXAZINO[3,4-I]DIPYRROLO[2,1-C:2′,1′-L][1]OXA[4,7,10,13]TETRAAZACYCLOHEXADECIN-12-YL)-3-(M-TOLYL)PROPANAMIDE] ({X3-CO}-[Phe(3-Me)][aThr][Hyp][Morpholine(3S-CO)]A[Pro(4R-Me)]; ester 2-C) |  | 45.6 ± 5.6 (≈ 38.7 µg/mL) | 1200 ± 100 | >20 |  |  |
| Cc1ccc(NC(=O)N[C@@H](Cc2cccc(C)c2)C(=O)N[C@H]2COC(=O)[C@@H]3CCCN3C(=O)[C@H](C)NC(=O)[C@@H]3CCCCN3C(=O)[C@@H]3C[C@@H](O)CN3C2=O)cc1 [Compound 49, (S)—N-((6S,8AS,14AS,16R,20S,23AS)-16-HYDROXY-6-METHYL-5,8,14,19,23-PENTAOXOOCTADECAHYDRO-1H,5H,14H,19H-PYRIDO[2,1-I]DIPYRROLO[2,1-C:2′,1′-L][1]OXA[4,7,10,13]TETRAAZACYCLOHEXADECIN-20-YL)-3-(M-TOLYL)-2-(3-(P-TOLYL)UREIDO)PROPANAMIDE] |  |  |  | >20 | 17 ± 6.97 (≈ 13.1 µg/mL) | 8.5 ± .51 µM |
